Ends that are not written are not given here.
Experiments:
[1] = tested on: streptavidin; assay: ELISA for streptavidin binding of purified His6-tagged leader-core peptides; settings: plates coated with 100 nM streptavidin; for streptavidin binding, effect of reducing conditions: 10 mM DTT vs non-reducing; for streptavidin binding, dependence on ProcM co-expression: peptide produced with or without ProcM, 1 h room temperature, anti-His detection
Method: Peptide candidates identified by phage display were produced and purified as leader-core peptides as described above. 384 well Maxisorp plates were coated with uPA or streptavidin (100 nM each) overnight at 4 °C. After washing and blocking the plates as described above, serial dilutions of the peptide preparations in PBST containing 0.5% (w v^−1) BSA (and 10 mM DTT for anti-streptavidin replicates) were added in duplicate, and plates incubated for 1 h at room temperature, shaking. Detection of bound peptides with AP-conjugated anti-His IgG was performed as described above.

[2] = tested on: nisin-sensitive L. lactis NZ9000; assay: Growth inhibition, filter-disc bioactivity assay (nisin); type: cell-based; settings: NisA produced as C-terminal MBP fusion in E. coli with NisBC; 20 µM leader-core peptide, trypsin treated; 40 µl on filter disc
From the text: (§1) MBP IEGR His6 leader core peptide
(§2) LctA-core […] NisA-core […]
(§3) ProcM enz yme NisBC enzymes […]
(§4) modified KGGSGVIHAbuIAHEANMNAWQFVFDhbAAS modified IDhbAIDhaLAAbuPGAKAbuGALMGANMKAbuAAbuAHASIHVDhaK […]
(§5) 1: PBS + trypsin 1: PBS + trypsin
(§6) 2: Authentic lacticin 481 2: Authentic Nisin
(§7) 3: MBP_His6_P roc A 3. 3-LctA + trypsin 3: MBP_His6_NisA + trypsin
(§8) 4: MBP_His6_P roc A 3. 3-Lc tA + ProcM + trypsin 4: MBP_His6_NisA + NisBC + trypsin
(§9) Supplementary Figure 3 Bioactivit y assay of lanthipeptides produced as C-term inal fusions to MBP.
(§10) (a) Schem atic drawing of the MBP-fusion vector used for expression of a chim eric peptide consisting of the ProcA3.3 leader sequence fused to the core of LctA (left panel) and NisA (right panel; full sequences shown in Supplem entary Table 5). The sequence of the unm odified and m odified core peptides as reported in the literature are indicated1. The arrow indicates a tr ypsin cleavage site used to release the m ature core peptide. (b) Growth inhibition of lacticin 481- sensitive L. lactis cremonis (HP) by filter- disc spotted peptide solutions. (1) Trypsin treated PBS (negative control); (2) authentic lacticin 481 (positive control); (3) ProcA3.3-LctA produced as C-term inal MBP fusion in E. coli without ProcM co- expression and treated with tr yps in; (4) ProcA3.3- LctA produced as C-term inal MBP fusion in E. coli with ProcM co-ex pression and treated with tr ypsin. […]

[3] = target: T1, human uPA (Homo sapiens, UniProt P00749); assay: Inhibition of uPA catalytic activity, fluorogenic substrate; type: biochemical; settings: PEP333 leader-core peptide, ProcM-modified; 1.5 nM human uPA; 50 µM Z-Gly-Gly-Arg 7-amido-4-methylcoumarin; 10 mM Tris-HCl pH 7.4, 5% DMSO; 25°C, 30 min; fluorescence 355/460 nm; experiment repeated three times; read-out: inhibitory constant Ki
T1 construct: purchased ProsPec enz-264-c
Method: Determination of inhibitory activit y of lanthipeptides
The inhibitory activities of ProcM-modified and non- modified anti-uPA peptides were determined as previously described2. In brief, 1.5 nM human uPA (ProsPec, # enz-264- c; purified by size exclusion chromatography) were incubated with 50 µM of the fluorogenic substrate Z-Gly-Gly-Arg 7 -am ido-4-methylcoumarin hydrochloride (Santa Cruz Biotechnology, # sc-208012) and different concentrations of anti-uPA peptides. Substrate and peptides were diluted in 10 mM Tris-HCl (pH 7.4), 150 mM NaCl, 10 mM MgCl2, 1 m M CaCl2, 0.1% (w v-1) BSA, 0.01% Triton X-100, 5% (v v-1) DMSO buff er. The uPA activity was measured by monitoring the change in fluorescence intensity after an incubation step at 25°C for 30 minutes (black 96 well plate with clear flat bottom, Corning CellBIND, # 3340; excitation at 355 nm, emission recorded at 460 nm, Tecan M200pro, […]). A […]
Anal ysis of phage-selected peptides by mass spectrometry
Samples were analyzed by FTMS using a Shimadzu UFLC system (Shimadzu, Den Bosch, The Netherlands) coupled on- line via the HESI interface with a LTQ–Orbitrap- XL mass spectrometer (Thermo Fisher Scientific., San Jose, CA). Samples were loaded onto an Acquity UPLC, BEH C18. 50 x 2.1mm, 1.7µM (Waters, Ireland). […]

[4] = tested on: lacticin 481-sensitive L. lactis cremonis (HP); assay: Growth inhibition, filter-disc bioactivity assay (lacticin 481); type: cell-based, L. lactis subsp. cremonis (HP); settings: ProcA3.3-LctA produced as C-terminal MBP fusion in E. coli with ProcM; 20 µM leader-core peptide, trypsin treated; 40 µl on filter disc
From the text: as §1, §2, §3, §4, §5, §6, §7, §8, §9, §10

Row | Substance | streptavidin binding, effect of reducing conditions [1] | streptavidin binding, dependence on ProcM co-expression [1] | further results
1 | ANCIQHLTHSPTVHKYFCPAAGPHHHHHH (also: bicyclic or more (positions not given here)) [PEP331] | only a slight reduction in binding was noticed in a reducing environment | strictly dependent on post-translational modifications introduced by ProcM | –
2 | TNCGRKMSATYSGQKMYCIAAGPHHHHHH (also: bicyclic or more (positions not given here)) [PEP330] | reducing conditions had only minor effects | bound streptavidin regardless of ProcM co-expression | –
3 | IDhbAIDhaLAAbuPGAKAbuGALMGANMKAbuAAbuAHASIHVDhaK (bicyclic or more) [nisin, antimicrobial lantibiotic, expressed as C-terminal MBP fusion with NisBC] | – | – | antimicrobial activity [2]: confirmed their antimicrobial activity
4 | AICQIADATRTGENRKCLAAGPHHHHHH (also: sidechain bridge or staple (positions not given here)) [PEP333] | – | – | Ki [3]: 0.564 µM
5 | KGGSGVIHAbuIAHEANMNAWQFVFDhbAAS (bicyclic or more) [lacticin 481] | – | – | antimicrobial activity [4]: confirmed their antimicrobial activity
